Source: patent US4218439A, “Peptide which inhibits gonadal function” (The Salk Institute for Biological Studies, priority 1978, dated 1980)

Tests used:
[1] = test system: release of gonadotropins by the pituitary gland; test: potency of the peptide compared with LRF; conditions: times more potent than LRF
Description: The peptide can be used as a contraceptive for male mammals. The peptide can be administered by any suitable and convenient method, such as orally, by injection or subcutaneously. The peptide can be combined with suitable pharmaceutically acceptable carriers or diluents, such as vegetable oil, sugars, polysaccharides and gums.

male rats [2] = test: treatment of male rats with the peptide once a day: organ weights, plasma hormones, histology, fertility; format: in vivo, rat
Description: It has been determined that the treatment of male rats with 10 micrograms of the peptide once a day for 7 days results in a decrease in testis and seminal vesicle weight, spermatogenesis and plasma androgen levels. However, immunoreactive gonadotropin levels in the treated male animals were elevated relative to control animals.

male mammals = test: effective dosage level and recovery after cessation of 7-day treatment; format: in vivo
Description: The peptide is used at a level effective to prevent reproduction by male mammals. It has been determined that the peptide of the invention is effective at levels as low as 0.5 microgram per kilogram of body weight per day for 7 days to reduce testes and seminal vesicle weights. […] Prostate weights recover in 2 weeks and seminal vesicle weights in 4 weeks. It is preferred to use dosage levels in the range of from about 0.5 to about 50 micrograms per kilogram of body weight per day. Higher levels can be used but no significant benefit is attained through use of higher levels.

male rats [3] = test: treatment of male rats with the peptide once a day: organ weights, plasma hormones, histology, fertility; format: in vivo, rat; conditions: 10 μG peptide for 15 days (Table I)
female rats = conditions: large and frequent dosages; cited from earlier work
[4] = test system: release of luteinizing hormone and other gonadotropins by the pituitary gland; conditions: compared with Gly6 peptide; cited from earlier work
[5] = following cessation of the injections
[6] = male rats, 10 micrograms once a day for 7 days
[7] = following cessation of treatment for 7 days

## CCNC(=O)[C@@H]1CCCN1C(=O)[C@H](CCCNC(=N)N)NC(=O)[C@H](CC(C)C)NC(=O)[C@@H](Cc1c[nH]c2ccccc12)NC(=O)[C@H](Cc1ccc(O)cc1)NC(=O)[C@H](CO)NC(=O)[C@H](Cc1c[nH]c2ccccc12)NC(=O)[C@H](Cc1c[nH]cn1)NC(=O)[C@@H]1CCC(=O)N1 [peptide, p--Glu--His--Trp--Ser--Tyr--D--Trp--Leu--Arg--Pro--NH--CH2 --CH3]
[1]
  potency relative to LRF: about 150 times
Male rats [2]; [5]
  ability to cause fertilization: incapable of causing fertilization
  ability to effect coitus: capable of effecting coitus
Male rats [2]; following the 7-day treatment, up to several weeks following cessation of daily injections
  histological examination of the testes: tubular damage, arrested spermatogenesis and degenerated Sertoli cells
Male rats [2]; [6]
  immunoreactive gonadotropin levels relative to control animals: elevated
  testis and seminal vesicle weight, spermatogenesis and plasma androgen levels: decrease
Male mammals; [7]
  time for prostate weights to recover: 2 weeks
  time for seminal vesicle weights to recover: 4 weeks
  time until testosterone levels comparable to those of control animals: one
Male mammals; for 7 days
  level effective to reduce testes and seminal vesicle weights: ≤ 0.5 microgram per kilogram of body weight per day
Male rats [3]
  Plasma DHT: 151 ng/mL
  Plasma FSH: 1582 ng/mL
  Plasma LH: 561 ng/mL
  Plasma Test.: 229 ng/mL
  Wt. Sem. V.: 0.18 Grams
  Wt. Testis: 1.33 Grams

## p--Glu--His--Trp--Ser--Tyr--Gly--Leu--Arg--Pro--Gly--NH2 (EHWSYGLRPG; pyroglutamyl N-terminus, C-terminal amide; printed: Glu--His--Trp--Ser--Tyr--Gly--Leu--Arg--Pro--Gly--) [LRF, hypothalamic hormone which acts as a releasing factor for LH; decapeptide]
Female rats
  effect on gonadal function: inhibit gonadal function

## p--Glu--Trp--Ser--Tyr--D--Ala--Leu--Arg--Pro--Gly--NH2
[4]
  potency as an inhibitor for the release of gonadotropins relative to the same peptide with Gly in the 6-position: 3 times
